# Assay results taken from patent US4168206A, “Impregnated disk method for testing antifungal susceptibility” (Philadelphia College of Osteopathic Medicine, priority 1977, dated 1979).
# Like-named read-outs stand apart in the source and are kept apart here.
# Experiments:
# Format in all cases: cell-based
# [1] = tested on: Candida albicans; test: Minimum fungicidal concentration by broth dilution method
# From the text: (§1) The preparation of the nutrient media, the antifungal agents and the fungi to be tested in the present invention are similar to those reported in S. Shadomy and A. Espinel-Ingroff, "Susceptibility Testing Of Antifungal Agents", Ch. 63, pp. 569-574 in E. H. Lennett, E. H. Spaulding, and J. P. Truant, Eds., Manual Of Clinical Microbiology, 2nd Ed., American Society for Microbiology, Washington, D.C. (1974). This publication describes the susceptibility testing of antifungal agents, namely, amphotericin B, nystatin and 5-fluoro-cytosine (5-FC), by the "broth dilution method" and the "semisolid agar dilution method". At pages 570-571, it is stated:
# The minimal fungicidal concentrations of amphotericin B for the first 6 isolates of Candida albicans listed in Table 1 were determined by incubating the disks and organisms for 48 hours. At concentrations below the minimum fungicidal concentration, overgrowth occurred by 48 hours.
# [2] = tested on: C. tropicalis; test: MIC by impregnated disk method, Candida tropicalis; conditions: Candida tropicalis, read-out: Minimum Inhibitory Concentration, Disk
# Experimental: (§2) Stock solutions of the antifungal agents to be tested are preferably prepared by diluting the antifungal agents in the proper nutrient medium. It is presently preferred to prepare dilutions in 10 ml of the proper medium to give the following final concentrations when applied to the disks (all quantities in micrograms per milliliter): 0.05, 0.08, 0.09, 0.1; 0.1 increment increases to 0.9, 1.0; 0.5 increment increases to 10.0; and 12.0, 14.0, 20.0, 25.0 and 50.0. Disks have been prepared by placing 0.05 ml of the above dilutions of antifungal agent containing medium on 6.5 mm diameter disks in 0.01 or 0.02 ml increments. The impregnated disks are then allowed to dry at a temperature preferably below about 10° C. […] The disks may also be dried by a lyophilization or freeze drying process.
# (§3) To perform the tests in accordance with the present inventions, disks impregnated with various concentrations of antifungal agent and nutrient medium and a control disk impregnated only with the corresponding nutrient medium are placed on the fungus to be tested which has been applied to the non-nutrient medium. The disks are the inoculated non-nutrient medium are then incubated at a suitable temperature for a sufficient time to promote growth of the fungus. Any temperature is suitable if it will promote growth of the fungus without adversely affecting the fungus or the activity of the antifungal agent or agents tested. The time of incubation can be determined by observing the extent of growth around the control disk. […] The zones of growth or inhibition around the disks were read at 6, 12, 24, 36 and 48 hours after the disks were placed on the tested fungus.
# (§4) The minimum inhibitory concentration is defined as the lowest concentration of antifungal agent which inhibits visible growth. […]
# (§5) Several test disks and a control disk were placed in each petri dish containing the inoculated agar. The disks and petri dishes were then incubated at 29° C. and the minimum inhibitory concentration of the various concentrations of the antifungal agents were read at 6, 12, 24, 36 and 48 hours. […]
# [3] = tested on: C. tropicalis; test: MIC by broth dilution method, Candida tropicalis; conditions: Candida tropicalis, read-out: Minimum Inhibitory Concentration, Broth
# From the text: as §1
# (§6) In 10 duplicate runs with each strain tested, the variation in minimum inhibitory concentration averaged ±0.05 μg/ml.
# (§7) *Broth dilution method conducted in accordance with S. Shadomy and E.
# (§8) Espinel-Ingroff, "Susceptibility Testing of Antifungal Agents", Ch. 63,
# (§9) pp. 569-574 in E. H. Spaulding and J. P. Truant, Eds., Manual Of Clinical
# (§10) Microbiology, 2nd Ed., American Society for Microbiology, Washington, […]
# [4] = tested on: Cryptococcus neoformans; test: MIC by impregnated disk method, Cryptococcus neoformans; conditions: Cryptococcus neoformans
# Experimental: as §2, §3
# (§11) The minimum inhibitory concentration is defined as the lowest concentration of antifungal agent which inhibits visible growth. The disks containing concentrations of antifungal agents below the minimum inhibitory concentration show circumscribed growth of the fungus around the disk. Disks containing concentrations of antifungal agent at or above the minimum inhibitory concentration show no circumscribed growth.
# (§12) Clinical isolates of various fungi listed in Table 1 were obtained from different patients diagnosed as having fungal infections. The fungal inocula were prepared by using a 24-48 hour cultures grown in yeast nitrogen base containing 1% glucose and 0.15% asparagine. After centrifuging, the supernatant was removed, the sedimented cells were washed twice with sterile distilled water and a cell suspension was adjusted to 80% transmission at 520 nm using a Beckman DB-GT grating spectrophotometer.
# (§13) Sterile liquified 2% purified agar was placed in petri dishes and allowed to harden. The surface of the agar was inoculated with a sterile cotton swab saturated with a suspension of an organism. The uniformly swabbed plates were then allowed to dry.
# (§14) Disks were prepared using the dilutions described above for amphotericin B, nystatin and 5-fluorocytosine. 0.05 ml of the dilutions of each antifungal agent diluted with the appropriate nutrient medium were pipetted on 6.5 mm diameter disks. The disks were dried at 4° C. after each application. Control disks were also prepared.
# (§15) Several test disks and a control disk were placed in each petri dish containing the inoculated agar. The disks and petri dishes were then incubated at 29° C. and the minimum inhibitory concentration of the various concentrations of the antifungal agents were read at 6, 12, 24, 36 and 48 hours.
# as §6
# [5] = tested on: Geotrichum candidum; test: MIC by broth dilution method, Geotrichum candidum; conditions: read-out: Minimum Inhibitory Concentration, Broth
# From the text: as §1, §6, §7, §8, §9, §10
# [6] = tested on: Saccharomyces cerevisiae; test: MIC by impregnated disk method, Saccharomyces cerevisiae; conditions: Saccharomyces cerevisiae
# Experimental: as §2, §3, §11, §12, §13, §14, §15, §6
# [7] = tested on: Candida tropicalis; test: Susceptibility to combination of antifungal agents on disks (Example 3)
# From the text: The method of the present invention also may be used to test combinations of antifungal agents. In this method, more than one antifungal agent of known concentration is impregnated in each test disk.
# Each disk is impregnated with a particular known concentration of at least one particular antifungal agent, except for the control disks. When the susceptibility of a fungus to combinations of antifungal agents is being tested, more than one antifungal agent is impregnated in each test disk.
# The susceptibility of two other isolates to combinations of antifungal agents were tested by combining more than one antifungal agent on each test disk. A series of test disks were prepared containing various combinations of antifungal agents in various concentrations and were used in the method of the present invention. The results of this procedure are summarized in the following specific, non-limiting examples:
# An isolate of Candida tropicalis was initially tested for amphotericin B susceptibility of 0.5 μg/ml. When a combination of amphotericin B and tetracycline were combined on the disks used in the testing procedure according to the present invention, effective inhibition of the isolate occurred using 0.05 μg/ml of amphotericin B and 0.2 μg/ml of tetracycline.
# [8] = tested on: Trichosporon sp.; test: MIC by impregnated disk method, Trichosporon sp.; conditions: Trichosporon, read-out: Minimum Inhibitory Concentration, Disk
# Experimental: as §2, §3, §4, §5
smiles,measurement,setting,value
"C[C@@H]1[C@H](O)[C@@H](C)/C=C/C=C/C=C/C=C/C=C/C=C/C=C/[C@H](O[C@@H]2O[C@H](C)[C@@H](O)[C@H](N)[C@@H]2O)C[C@@H]2O[C@](O)(C[C@@H](O)C[C@@H](O)[C@H](O)CC[C@@H](O)C[C@@H](O)CC(=O)O[C@H]1C)C[C@H](O)[C@H]2C(=O)O [Amphotericin B, amphotericin B]",MFC,[1]; isolate 1,1.5 µg/mL
same,MFC,[1]; isolate 2,1.6 µg/mL
same,MFC,[1]; isolate 3,0.8 µg/mL
same,MFC,[1]; isolate 4,1.1 µg/mL
same,MFC,[1]; isolate 5,1.6 µg/mL
same,MFC,[1]; isolate 6,6.5 µg/mL
same,MIC,[2],0.7 µg/mL
same,MIC,[3],0.8 µg/mL
same,MIC,"[4]; read-out: Minimum Inhibitory Concentration, Disk, C. neoformans isolate 2",0.2 µg/mL
same,MIC,"[4]; read-out: Minimum Inhibitory Concentration, Disk, C. neoformans isolate 3",0.5 µg/mL
same,MIC,"[4]; read-out: Minimum Inhibitory Concentration, Disk, Cryptococcus neoformans isolate 1",0.4 µg/mL
same,MIC,[5],0.9 µg/mL
same,MIC,"[6]; read-out: Minimum Inhibitory Concentration, Disk, S. cerevisiae isolate 2",0.6 µg/mL
same,MIC,"[6]; read-out: Minimum Inhibitory Concentration, Disk, Saccharomyces cerevisiae isolate 1",0.4 µg/mL
same,MIC,"[7]; Candida tropicalis isolate, alone, initially tested, read-out: amphotericin B susceptibility",0.5 µg/mL
same,"effective inhibition of the isolate, concentration of amphotericin B",[7]; in combination with tetracycline 0.2 μg/ml,0.05 µg/mL
same,MIC,[8],0.9 µg/mL
